Key:
C2C12 myotubes [1] = test: Fura-2 Ca2+ ratios in C2C12 myotubes, functional screen with TRPV agonists; format: cell-based; conditions: for intracellular (cytosolic) Ca2+ rise: Fura-2 Ca2+ ratios
Experimental: FIG. 2. Fura-2 Ca^2+ Ratios in C2C12 myotubes in response to known activators of TRPV1 (Capsaicin), TRPV3 (Thymol, Carvacrol, 2-APB), and TRPV4 (GSK 101). ** p<0.01 compared to vehicle Ca^2+ response.
To determine the physiological significance of these TRPV ion channels in skeletal muscle Ca^2+ homeostasis, a functional screen for the magnitude of intracellular Ca^2+ rise was performed using known agonists for TRPV1 (Capsaicin), TRPV3 (Carvacrol/Thymol/2-APB) and TRPV4 (GSK101) in C2C12 myotubes (FIG. 2). C2C12 myoblasts were grown to confluency and then differentiated into myotubes by culturing in Dulbecco's Modified Eagles Medium (DMEM) with 2% horse serum for 5 days. Measurement of Fura-2 Ca2+ ratios in C2C12 myotubes was performed as described previously in cultured adipocytes (Ye L., et al., TRPV4 is a regulator of adipose oxidative metabolism, inflammation, and energy homeostasis. Cell. 2012; 151:96-110).

[2] = tested on: flexor digitorum brevis (FDB) muscle fibers; test: Confocal calcium imaging (Fluo-4AM) of freshly isolated FDB muscle fibers; format: cell-based, mouse; conditions: for effects on Ca2+ cycling: freshly isolated muscle fibers, carvacrol 100, 200, 500 μM, thymol 50, 100, 200 μM
Experimental: FIG. 3. Confocal calcium imaging (Fluo-4AM) of freshly isolated mouse flexor digitorum brevis (FDB) muscle fibers in response to sequential applications of carvacrol (A: 100, 200 and 500 μM) and thymol (B: 50, 100 and 200 μM).
These findings were further validated in freshly isolated mouse flexor digitorum brevis (FDB) muscle fibers (FIG. 3) to confirm the result in primary muscle cells. Primary skeletal muscle fibers were isolated from flexor digitorum brevis (FDB) muscle. In brief, FDB muscles were dissected and mechanically cleaned of connective tissue in a standard Ringer's solution containing (in mM): 146 NaCl, 5 KCl, 2 CaCl2, 1 MgCl2, and 10 HEPES, pH 7.4 with NaOH. Muscles were then shaken for 40 min at 37° C. in 1 mg/ml of collagenase A (Roche) dissolved in Ringer's solution. After collagenase treatment, individual FDB fibers were dissociated by gentle trituration using Pasteur pipettes of decreasing bore size. […] All experiments were conducted at room temperature on fibers obtained within 8 h of isolation. Confocal calcium imaging of FDB fibers were performed as described previously in cardiac myocytes but at room temperature (23° C.) (Sah R., et al., Ion channel-kinase TRPM7 is required for maintaining cardiac automaticity. Proc Natl Acad Sci USA. 2013; 110:E3037-46).

C2C12 myotubes [3] = test: Myotube hypertrophy by immunostaining and confocal imaging (myotube diameter); format: cell-based; conditions: 50 μM for 48 hours
Experimental: FIG. 4. A. Confocal images immunostained C2C12 myotubes (staining skeletal actin and Topro-3 nuclear stain) incubated for 48 hrs in vehicle (left) or carvacrol 50 μM (right). B. quantification of myotube width. NT—not treated, Vehicle—DMSO.
It was next examined whether the increase in cytosolic Ca^2+ induced by this class of compounds could induce cellular hypertrophy in vitro in C2C12 myotubes as would occur with augmented Ca^2+ release during exercise. Immunostaining and confocal imaging of C2C12 myotubes were performed as described previously in cardiac myocytes (Sah R., et al., The Timing of Myocardial Trpm7 Deletion during Cardiogenesis Variably Disrupts Adult Ventricular Function, Conduction and Repolarization. Circulation. 2013).

PGC1α = test: qRT-PCR transcriptional screen in C2C12 myotubes: PGC1α; format: cell-based; conditions: 48 hrs
Experimental: (§1) FIG. 5. […] A. fold change after 48 hrs carvacrol (0, 5, and 100 μM, from left to right for each grouping); and B. thymol (0, 5, and 50 μM, from left to right for each grouping).
(§2) A qRT-PCR based transcriptional screen was then performed to assess for induction of the classical genes associated with exercise-induced changes in skeletal muscle, including growth, and enhanced endurance (FIG. 5). Transcriptional analysis of candidate genes was performed as described previously (Sah R., et al., The Timing of Myocardial Trpm7 Deletion during Cardiogenesis Variably Disrupts Adult Ventricular Function, Conduction and Repolarization. Circulation. 2013; Sah R., et al., Ion channel-kinase TRPM7 is required for maintaining cardiac automaticity. Proc Natl Acad Sci USA. 2013; 110:E3037-46) using the following primers: […]

IGF-1 = test: qRT-PCR transcriptional screen in C2C12 myotubes: IGF-1; format: cell-based; conditions: 48 hrs
Experimental: as §1, §2

C57/B6 mice [4] = test: Exercise tolerance by treadmill testing of sedentary mice; format: in vivo, mouse; conditions: 20 mg/kg/day oral gavage, 5 weeks
Experimental: FIG. 6. Exercise tolerance measured by treadmill testing of C57/B6 mice before and after 5 weeks of either vehicle or thymol (20 mg/kg/day). A. Exercise protocol and tolerance after vehicle or thymol. B. Mean exercise tolerance pre and post treatment.
(§3) Based on these strong in vitro data, in vivo studies were then performed to determine both safety and efficacy of using thymol and/or carvacrol to mimic the effects of exercise on skeletal muscle function. […] Accordingly, the pilot studies were limited to thymol alone and treated sedentary C57/B6 mice with either vehicle (Sunflower oil) or Thymol (20 mg/kg/day) by oral gavage for 5 weeks and then assessed exercise capacity by treadmill testing, core body temperature by infra-red thermal imaging, and skeletal muscle hypertrophy by muscle weight. […] J Gen Physiol. 2014; 143:119-34)) after mild exercise (FIG. 7) and an increase in gastrocnemius muscle weight (weight bearing muscles—FIG. 8).

C57/B6 mice [5] = test: Core body temperature by infra-red thermal imaging after mild exercise; format: in vivo, mouse; conditions: sedentary C57/B6 mice, 20 mg/kg/day oral gavage, 5 weeks
Experimental: FIG. 7. Top: Representative thermal images of vehicle (left) and thymol (right) treated mice. Bottom: Mean data of temperature of upper and lower body in vehicle-treated vs thymol treated mice.
as §3

C57/B6 mice [6] = test: Skeletal muscle hypertrophy by muscle weight; format: in vivo, mouse; conditions: sedentary C57/B6 mice, 20 mg/kg/day oral gavage, 5 weeks
Experimental: FIG. 8: Skeletal muscle weight in sedentary C57/B6 mice after 5 weeks of treatment with either vehicle or thymol (for each group, the left bar represents vehicle and the right bar represents thymol).
as §3

TRPV3 knock-out mice = test: In vivo experiments repeated in TRPV3 knock-out mice; design: species or system mouse; conditions: TRPV3 KO mice, 20 mg/kg/day, 5 weeks
Experimental: FIG. 9: Exercise tolerance measured by treadmill testing of TRPV3 KO mice before and after 5 weeks of either vehicle or thymol (20 mg/kg/day). A. Exercise protocol and tolerance after vehicle or thymol. B. Mean exercise tolerance pre and post treatment.
as §3

Row | SMILES | intracellular (cytosolic) Ca2+ rise (C2C12 myotubes [1]) | effects on Ca2+ cycling [2] | induction of PGC1α (PGC1α) [fold] | induction of IGF-1 (IGF-1) [fold] | other results
1 | NCCOB(c1ccccc1)c1ccccc1 [2-APB, reference compound] | reproducible and reversible increases | – | – | – | –
2 | COc1cc(CNC(=O)CCCC/C=C/C(C)C)ccc1O [Capsaicin, reference compound] | essentially no effect | – | – | – | –
3 | CC(C)C[C@H](NC(=O)c1cc2ccccc2s1)C(=O)N1CCN(C(=O)[C@H](CO)NS(=O)(=O)c2ccc(Cl)cc2Cl)CC1 [GSK101, reference compound] | essentially no effect | – | – | – | –
4 | Cc1ccc(C(C)C)cc1O [carvacrol, 2-methyl-5-isopropylphenol] | reproducible and reversible increases | clear effects | 13.8 | ~8 | myotube hypertrophy (increase in myotube diameter) (C2C12 myotubes [3]): significant myotube hypertrophy
5 | Cc1ccc(C(C)C)c(O)c1 [thymol, 2-isopropyl-5-methylphenol] | reproducible and reversible increases | clear effects | 3 | ~4 | potency at augmenting cytosolic Ca2+ relative to carvacrol (C2C12 myotubes [1]): approximately twice as potent as carvacrol; potency at augmenting cytosolic Ca2+ relative to carvacrol ([2]; freshly isolated mouse FDB fibers): approximately twice as potent as carvacrol; augmented exercise capacity over vehicle treated mice (C57/B6 mice [4]): 37%; core body temperature after mild exercise (C57/B6 mice [5]): significant increase; gastrocnemius muscle weight (C57/B6 mice [6]): increase; augmented thermogenesis in TRPV3 knock-out mice (TRPV3 knock-out mice): abolished; enhanced exercise capacity in TRPV3 knock-out mice (TRPV3 knock-out mice): abolished; gastrocnemius hypertrophy in TRPV3 knock-out mice (TRPV3 knock-out mice): abolished

From patent US11135178B2, “Thymol and carvacol for use in medicine” (UNIVERSITY OF IOWA RESEARCH FOUNDATION, priority 2014, dated 2021)
